25 molecules from patent US20140309275A1, “Sphingosine Analogs, Compositions, and Methods Related Thereto” (Emory University, priority 2011, published 2014) can be followed below.

Like-named read-outs stand apart in the source and are kept apart here.

What all share (assay type): cell-based
Assay [1] has as its system PC-3 prostate cancer cells. The experiment in a line: WST-1 cytotoxicity assay, PC-3. Conditions: 24 h treatment. The protocol:
(§1) Prostate cancer cells were treated with enigmol or analogue for 24 h, and cytotoxicity was assessed by WST-1 assay. cLogPs were calculated with QuikProp on Maestro.
A general note: Formazan colour is commonly taken as a measure of viable cells.

The subject of assay [2] is LNCaP prostate cancer cells. The assay is described as follows: WST-1 cytotoxicity assay, LNCaP. The conditions noted are these: Homo sapiens, 24 h treatment. The protocol: as §1
The subject of assay [3] is P. falciparum chloroquine resistant (CQ-R) W2 strain. The assay is described as follows: [3H]-labeled hypoxanthine uptake assay, P. falciparum W2. Conditions: for IC50: Plasmodium falciparum; for IC50 W2: Table 1. An excerpt: (§2) The [^3H]-labeled hypoxanthine uptake method was utilized to assay the effectiveness of our sphingoid base analogs in vitro for their ability to inhibit the growth and replication of malaria parasites in RBCs. […] The simian malaria parasite P. knowlesi has also been recognized as a human pathogen of public health concern in South East Asia, and it can be cultured effectively in vitro. This species was therefore included to probe the potential of multi-species efficacy within this compound class.
(§3) Cryopreserved iRBCs were provided by Dr. John W. Barnwell from the Centers for Disease Control and Prevention and maintained in in vitro culture as described in Trager & Jensen, Science 1976, 193 (4254), 673-5.
(§4) Compounds in Table 1 were dissolved in 70% 200-proof pharmaceutical grade ethanol, and a working solution of 0.2 mg/mL was prepared using hypoxanthine- and gentamicin-free incomplete RPMI 1640 (Gibco). Compounds in Table 2 were dissolved in 200 proof pharmaceutical grade ethanol at a concentration of 50 μM and then conjugated to BSA (Sigma) as described.^5 A working solution of 0.2 mg/mL was prepared using hypoxanthine- and gentamicin-free incomplete RPMI 1640 (Gibco). Two compounds were tested per plate in triplicate starting at 0.2 mg/mL and diluted two-fold down to 0.019 μg/mL using hypoxanthine- and gentamicin-free RPMI.
(§5) Parasite inoculum was prepared by mixing parasitized blood, uninfected 0+RBCs (for P. falciparum strains) or rhesus RBCs (for P. knowlesi) and culture medium (deficient in hypoxanthine and gentamicin) to a final concentration of 1% parasitemia and 1% haematocrit. A negative control was prepared by diluting uninfected erythrocytes to 1% haematocrit in culture medium. [^3H]-labeled hypoxanthine was added at 24 h (for P. falciparum strains) or 12 h (P. knowlesi) and the culture was collected 48 h or 12 h later for P. falciparum or P. knowlesi, respectively. [^3H] uptake was measured by using a scintillation spectrophotometer (Wallac Oy 1450 MicroBeta reader).
(§6) Triplicate wells were used to calculate the IC50 for each compound using the software XLFit v5.2 using the sigmoidal model 601. Average and standard deviations were calculated using Microsoft Excel.

Assay [4] concerns P. falciparum chloroquine susceptible (CQ-S) D6 strain. The experiment in a line: [3H]-labeled hypoxanthine uptake assay, P. falciparum D6. The conditions noted are these: for IC50: Plasmodium falciparum; for IC50 D6: Table 1.
Source text: as §2, §3, §4, §5, §6

For a further assay, the system named is P. knowlesi H strain. The experiment in a line: [3H]-labeled hypoxanthine uptake assay, P. knowlesi. The conditions noted are these: Table 1, compounds dissolved in 70% ethanol, not BSA-conjugated; for IC50: Plasmodium knowlesi.
Source text: The [^3H]-labeled hypoxanthine uptake method was utilized to assay the effectiveness of our sphingoid base analogs in vitro for their ability to inhibit the growth and replication of malaria parasites in RBCs. […] The simian malaria parasite P. knowlesi has also been recognized as a human pathogen of public health concern in South East Asia, and it can be cultured effectively in vitro. This species was therefore included to probe the potential of multi-species efficacy within this compound class. The data were generated with the known antimalarial drugs chloroquine and mefloquine as controls.
The H strain of P. knowlesi has been adapted to in vitro culture using Macaca mulatta (rhesus monkey) RBCs essentially as described in Kocken et al., Infect Immun 2002, 70 (2), 655-60 (the media was supplemented with 10% human AB serum).
Chloroquine (Sigma) and mefloquine (Sigma) were used as controls. Compounds in Table 1 were dissolved in 70% 200-proof pharmaceutical grade ethanol, and a working solution of 0.2 mg/mL was prepared using hypoxanthine- and gentamicin-free incomplete RPMI 1640 (Gibco). Compounds in Table 2 were dissolved in 200 proof pharmaceutical grade ethanol at a concentration of 50 μM and then conjugated to BSA (Sigma) as described.^5 A working solution of 0.2 mg/mL was prepared using hypoxanthine- and gentamicin-free incomplete RPMI 1640 (Gibco). Two compounds were tested per plate in triplicate starting at 0.2 mg/mL and diluted two-fold down to 0.019 μg/mL using hypoxanthine- and gentamicin-free RPMI.
as §5, §6

Where [5] appears, read: W2, Table 1, compounds dissolved in 70% ethanol, not BSA-conjugated, read-out: IC50 W2.
Where [6] appears, read: D6, Table 1, compounds dissolved in 70% ethanol, not BSA-conjugated, read-out: IC50 D6.
The mark [7] stands for this setting: W2, Table 2, compounds conjugated to BSA, read-out: IC50 W2.
Where [8] appears, read: D6, Table 2, compounds conjugated to BSA, read-out: IC50 D6.
[9] abbreviates: compounds dissolved in 70% ethanol, not BSA-conjugated.

With `C[C@H](N)[C@@H](O)C[C@@H](O)CCCCC/C=C/CCCCCC(F)(F)F` [ESPD-01186], the IC50 (in general, the concentration at which inhibition is half-maximal) came to 27 µM in assay [1] and 14 µM in assay [2].
With `CCCCCCCCCCCCC[C@H](O)C[C@@H](O)[C@H](C)NC` [ESPD-0559, (2S,3R,5S)-2-(methylamino)octadecane-3,5-diol], the IC50 in assay [3] (setting [5]) turned out to be 8.09 ± 0.24 µM; in assay [4] (setting [6]) it was 14.6 ± 0.64 µM.
Regarding `CCCCCCCCCCCCC(F)(F)[C@H](O)C[C@@H](O)[C@H](C)N` [ESPD-01408, (2S,3R,5R)-2-amino-6,6-difluorooctadecane-3,5-diol], the IC50 in assay [1] is 9 µM; in assay [2], 10 µM.
`CCCCCCCCCCCCC[C@H](O)C[C@H](O)[C@@H]1CCCN1` [ESPD-0522, (1S,3S)-1-((S)-pyrrolidin-2-yl)hexadecane-1,3-diol]: the IC50 in assay [3] (setting [5]) came out at 4.39 ± 1.5 µM; in assay [4] (setting [6]) it was 9.7 ± 1 µM; in the assay with P. knowlesi H strain, 6.25 ± 0.27 µM.
In the case of `CCCCCCCCCCCCC[C@@H](O)C[C@H](O)C1(N)CC1` (racemic) [ESPD-0859, (+/−)-anti-1-(1-aminocyclopropyl)hexadecane-1,3-diol], the values for the IC50 in assay [3] (setting [7]) and in assay [4] (setting [8]) were 7.2 ± 4 µM and 11.2 µM, respectively.
In the case of `CCCCCCCCCCCCC[C@H](O)C[C@H](O)[C@H](C)NC(C)=O` [ESPD-0506, N-((2S,3S,5S)-3,5-dihydroxyoctadecan-2-yl)acetamide], the IC50 in assay [3] (setting [5]) was 13.1 ± 3.7 µM; in assay [4] (setting [6]), 11.1 ± 0.5 µM; with P. knowlesi H strain, greater than 58 µM. Further, the “IC50 W2” value in assay [3] (setting [9]) is on record as “no activity”. Moreover, the “IC50 D6” value in assay [4] (setting [9]) is reported as “no activity”. Further, the “IC50 P. knowlesi” value in the assay with P. knowlesi H strain was “no activity”.
`C[C@H](N)[C@@H](O)C[C@@H](O)CCCCCC#CCCCCCC(F)(F)F` [ESPD-01184]: the results for the IC50 in assay [1] and in assay [2] were 92 µM and greater than 100 µM, respectively.
For `CCN(CC)CCCC(C)Nc1ccnc2cc(Cl)ccc12` (centres unmarked) [Chloroquine, reference compound], the IC50 in assay [3] (W2, read-out: IC50 W2, Table 1, compounds dissolved in 70% ethanol, not BSA-conjugated) stood at 0.18 µM; in assay [3] (W2, read-out: IC50 W2, Table 2, compounds conjugated to BSA), 0.093 µM; in assay [4] (D6, read-out: IC50 D6, Table 1, compounds dissolved in 70% ethanol, not BSA-conjugated), 0.02 µM; in assay [4] (D6, read-out: IC50 D6, Table 2, compounds conjugated to BSA) it was 0.011 µM.
For `CCCCCCCCCCCCC[C@H](O)C[C@H](O)C(C)(C)N` (racemic) [ESPD-0560, (+/−)-syn-2 amino-2-methyloctadecane-3,5-diol], the IC50 in assay [1] came to 10 µM; in assay [2] it was 23 µM; in assay [3] (setting [7]) it was 4.67 ± 1 µM; in assay [4] (setting [8]) it was 5.2 ± 3 µM.
Consider `C[C@H](N)[C@@H](O)C[C@@H](O)CCCCCCCCCCCCC(F)(F)F` [ESPD-01183], for which the IC50 in assay [1] and in assay [2] was 13 µM throughout.
As for `OC(c1cc(C(F)(F)F)nc2c(C(F)(F)F)cccc12)C1CCCCN1` (centres unmarked) [Mefloquine, reference compound], the IC50 in assay [3] (setting [7]) was determined as 0.004 µM; in the assay on P. knowlesi H strain, 0.04 µM.
Turning to `CCCCCCCCCCCCC(F)(F)[C@@H](O)C[C@H](O)[C@H](C)N` [ESPD-01407, (2S,3S,5S)-2-amino-6,6-difluorooctadecane-3,5-diol], the IC50 in assay [1] was found to be 9 µM; in assay [2], 10 µM.
Consider `CCCCCCCCCCCCC[C@@H](O)C[C@H](O)[C@H](C)N` [ESPD-0503], for which the IC50 in assay [3] (setting [5]) came out at 8.17 ± 1.8 µM; in assay [4] (setting [6]), 12.7 ± 1.2 µM; in the assay on P. knowlesi H strain, 17.6 ± 1.8 µM.
Consider `CCCCCCC#CCCCCC[C@H](O)C[C@H](O)[C@H](C)N` [ESPD-01185], for which the IC50 in assay [1] and in assay [2] was greater than 100 µM in each case.
Regarding `CCCCCCCCCCCCC(F)(F)[C@@H](O)C[C@@H](O)[C@H](C)N` [ESPD-01409, (2S,3R,5S)-2-amino-6,6-difluorooctadecane-3,5-diol], the IC50 in assay [1] and in assay [2] was 10 µM throughout.
For `CCCCCC/C=C/CCCCC[C@H](O)C[C@H](O)[C@H](C)N` [ESPD-01187], the IC50 came out at 33 µM in assay [1] and 19 µM in assay [2].
As for `CCCCCCCCCCCCC[C@H](O)C[C@H](O)C1(N)CC1` (racemic) [ESPD-0860, (+/−)-syn1-(1-aminocyclopropyl)hexadecane-1,3-diol], the figures for the IC50 in assay [3] (setting [7]) and in assay [4] (setting [8]) were 9.9 ± 7 µM and 5.5 µM, respectively.
With `CCCCCCCCCCCCC[C@H](O)C[C@H](O)C(C)(C)NC` (racemic) [ESPD-1158, (+/−)-syn-2-methyl-2-(methylamino)octadecane-3,5-diol], the half-inhibitory concentration (IC50) was determined as 0.25 µM in assay [3] (setting [7]); 0.25 µM in assay [3] (W2, text b107, BSA-conjugated, strain not stated (matches W2 of Table 2), read-out: IC50); 0.7 ± 0.5 µM in assay [4] (setting [8]).
For `CCCCCCCCCCCCC[C@H](O)C[C@H](O)[C@H](C)N(C)C` [ESPD-0513, (2S,3S,5S)-2-(dimethylamino)octadecane-3,5-diol], the IC50 in assay [3] (setting [5]) stood at 4.42 ± 1.1 µM; in assay [4] (setting [6]), 7 ± 0.6 µM; in the assay with P. knowlesi H strain it was 6.83 ± 0.09 µM.
For `CCCCCCCCCCCCCC(O)C/C(=N\O)C(C)(C)N` (centres unmarked) [ESPD-0858, (+/−,E)-2-amino-5-hydroxy-2-methyloctadecan-3-one oxime], the IC50 in assay [1] was 24 µM; in assay [2], 24 µM; in assay [3] (setting [7]), 10 ± 2.7 µM; in assay [4] (setting [8]), 7.44 µM.
On to `CCCCCCCCCCCCC[C@H](O)C[C@@H](O)[C@H](C)N` [ESPD-0505, (2S,3R,5S)-2-Aminooctadecane-3,5-diol], for which the IC50 in assay [3] (setting [5]) stood at 9.22 ± 1.6 µM; in assay [4] (setting [6]) it was 17.8 ± 1.1 µM; in the assay with P. knowlesi H strain it was 20.3 ± 2 µM.
Take `CCCCCC/C=C\CCCCC[C@H](O)C[C@H](O)[C@H](C)N` [ESPD-01192]: the IC50 in assay [1] worked out at 25 µM; in assay [2], 19 µM.
Taken in the same sequence, the figures for `CCCCCCCCCCCCC(F)(F)[C@H](O)C[C@H](O)[C@H](C)N` [ESPD-01406, (2S,3S,5R)-2-amino-6,6-difluorooctadecane-3,5-diol] were 9 µM and 10 µM.
`CCCCCCCCCCCCCCCC(=O)N[C@@H](C)[C@@H](O)C[C@@H](O)CCCCCCCCCCCCC` [ESPD-0514, N-((2S,3S,5S)-3,5-dihydroxyoctadecan-2-yl)palmitamide]: the IC50 (in assay [3] (setting [5]); in assay [4] (setting [6]); with P. knowlesi H strain) was greater than 37 µM each time. Also, in assay [3] (setting [9]), the “IC50 W2” value is “no activity”. In assay [4] (setting [9]), the “IC50 D6” value was “no activity”. Also, the “IC50 P. knowlesi” value in the assay on P. knowlesi H strain was “no activity”.
For the molecule `CCCCCCCCCCCCC[C@@H](O)C[C@H](O)C(C)(C)N` (racemic) [ESPD-0561, (+/−)-anti-2 amino-2-methyloctadecane-3,5-diol], the IC50 in assay [1] worked out at 10 µM; in assay [2], 25 µM; in assay [3] (setting [7]), 7.43 µM; in assay [4] (setting [8]), 4.1 ± 0.7 µM.
